Source: patent publication US9320271B2, “Microbial composition” (Rohm and Haas Company, priority 2011, dated 2016)
“And” between values parts separate entries of the source, which are not always exact repeats. Identical values can stand only once.

What was measured:
Format in all cases: cell-based
[1] = test system: Escherichia coli (10536 strain); assay: 15 second contact kill test versus E. coli (actives in water, mean bacterial survival NMBS); conditions: for MBC (minimum biocidal concentration of antimicrobial components): Table 27; for NMBS: no alcohol, 15 s
Experimental: 15 Second Contact Kill Test Versus E. Coli and S. Aureus
Antimicrobial efficacy is tested against a representative pathogenic bacterial organism, Gram negative Escherichia coli. Concentrations of actives are expressed in terms of the percentage weight/volume (% w/v) throughout Example 1.
An overnight culture of Escherichia coli (10536 strain) was prepared in 50 ml total volume of TSB broth, grown for ca. 18 hrs at 37° C. and shaken at 150 rpm. 1 ml of this overnight E. coli culture was transferred to 50 ml of fresh TSB broth and incubated at 37° C. at 150 rpm for ca. 4 hours. This culture was separated into equal volumes and centrifuged at 4000 rpm for 15 minutes, washed with sterile saline (0.85% NaCl), centrifuged once more and re-suspended in saline to give a final concentration of 0.8 OD620 equivalent to about 10^8 cells per milliliter for this particular organism. Here, OD620 indicates the absorbance of a sample in a cuvette of 1.0 cm path length at a wavelength of 620 nm. This bacterial stock was used for assaying against antimicrobial actives (in triplicate). S. Aureus Bacterial Stock
The following assay describes the testing of 8 materials using 6 dilutions across half of a 96-well micro titre plate (MTP). Using this approach it is possible to assay 16 actives (without replicates) with one full dilution plate, replicating this set up in two halves of the plate columns, 1-6 and 7-12. 1M solutions of the test actives were prepared in dimethylsulphoxide (DMSO). […] Aliquots (270 μl) of the materials at 1.11 times the final concentration were dispensed into the wells of the MTP along one column (A1-H1). This MTP was labelled as the “Screening plate”. In another MTP, labelled as the “Dilution plate”, […] of D/E neutralising solution from DIFCO Composition was added to column 1. The composition of the neutralising solution was as follows: pancreatic digest of casein, 5.0 g/L; Yeast Extract, 2.5 g/L; Dextrose, 10 g/L, sodium thioglycollate, 1.0 g/L, sodium thiosulphate, 6.0 g/L; sodium bisulphite, 2.5 g/L; Polysorbate 80, 5.0 g/L; lecithin 7.0 g/L; bromocresol purple, 0.02 g/L with a pH in the range 7.6±0.2. 270 μl of tryptone diluent solution was added to all the remaining wells of the Dilution MTP (columns 2-6). Bacterial stock (30 μl) was then added to the prepared 270 μl of the solution of actives in the Screening Plate and mixed, using a multichannel pipette with 8 tips to aspirate and dispense the same volume of bacterial stock in parallel to 8 wells in rows A-H. After a contact time of 15 seconds, the mixtures were quenched by transferring 30 μl volumes of the mixtures into the 270 μl D/E neutralising solution in the prepared dilution plate, using aspiration to mix. After exactly 5 minutes in the D/E neutralising solution, 30 μl volumes were transferred from column 1 to column 2 of the Dilution MTP and mixed, before transferring further 30 μl volumes from column 2 into column 3. This process was repeated serially diluting the bacteria across the plate to column 6. 30 μl volumes from each well in the Dilution MTP were transferred onto pre-labelled segment of Tryptone Soya Agar (TSA) plates starting from the lowest bacterial concentration (highest dilution, column 6) to the highest bacterial concentration (column 1). The TSA plates were allowed to stand for ca. 2 hours so that the 30 μl inocula spots could dry and the plates were then inverted and incubated overnight at 37° C. before enumerating the bacterial colonies at the labelled dilutions to determine the effects of the actives on bacterial growth. Calculation of Results Mean bacterial survival numbers NMBS (expressed in Log CFU/ml) are obtained by first determining the segment of the TSA plate where the number of bacterial colonies is countable.

[2] = test system: Escherichia coli (E. coli—ATCC #10536); assay: Automated assessment of efficacy in surfactant base (2.85% sodium cocoyl glycinate and 1.85% sodium lauroamphoacetate, pH 10.0), 15 seconds exposure; conditions: for Δ OD 450 nm = OD450 (time = 16 hours) − OD450 (time zero), Mean / Δ OD 590 nm OD590 (time = 16 hours) − OD590 (time zero), Mean / No. of replicates showing growth (out of 4): alone, model surfactant solution; for MBC (minimum biocidal concentration): in 2.85% sodium cocoyl glycinate + 1.85% sodium lauroamphoacetate solution at pH 10, E. coli
Experimental: Test Methodology for Automated Assessment of Efficacy in Surfactant Base Microbiocidal Activity of Actives as Per the Invention in a Model Surfactant Medium Test Methodology for Automated Assessment of Efficacy in Surfactant Base In these examples, the efficacy of combinations of actives were tested in a surfactant cleansing formulation comprising 2.85% sodium cocoyl glycinate and 1.85% sodium lauroamphoacetate. This corresponds to a 50% in use dilution with water of a neat formulation containing 5.7% cocoyl glycinate and […] % sodium, lauroamphoacetate during hand washing. Solutions were prepared such that the concentrations of the surfactant components and test actives were 1.1× the final desired concentration in order to allow for dilution with the bacterial inoculum in the test. The solutions were manually adjusted to pH 10.0 by dropwise addition of sodium hydroxide solution, as measured with a pH meter at ambient temperature. The efficacy of the combinations of the present invention was determined against Escherichia coli (E. coli—ATCC #10536), at a concentration of approximately 1×10^8 bacteria per mL. Tests were conducted using standard microtiter plate assays using an automated liquid handling system. 270 μl of the surfactant test solution was pipetted into each well of the microtitre plate and 30 μl of the bacterial suspension was then added. Alter exactly 15 seconds of bacterial exposure, a 30 μl volume of bacterial cells was withdrawn and transferred to 270 μl of D/E quench solution. After 5 minutes in the D/E quench, the optical density (OD) was measured for each plate in turn at two specific wavelengths (450 nm and 590 nm). These provide a dual check of antimicrobial activity, as the OD450 reading is specific for the yellow colour of D/E quench when bacterial growth is observed, whereas OD590 is specific for the initial purple colour of the D/E quench which is retained if no bacterial growth is observed. After the time zero OD measurements, plates were then incubated at 37° C. overnight (16 hours) before repeating the OD measurements. Delta OD values were calculated by subtracting […]. Bacterial growth is observed as an increase in OD450 and a decrease in ΔOD590. To identify antibacterially efficacious systems (those preventing appreciable bacterial growth after incubation), the following threshold changes in OD readings have been adopted: if (1). OD450 increases by less than 0.2 absorbance unit on incubation and (2). OD590 decreases by less than 0.35 unit on incubation. Conversely, where OD450 increases by more than 0.2 AU and OD590 decreases by more than 0.35 unit after incubation, corresponding to a colour shift from purple to yellow, the test system allows bacterial growth and is not deemed efficacious. Four replicate measurements in the same plate have been made for each test system. The number of replicate wells showing either bacterial growth or no growth is also readily assessed by eye by following the colour change. Dose responses for individual components and binary mixtures of actives at a fixed concentration ratio were generated by sequential dilution of liquors with further surfactant solution to obtain a series of endpoints. […] In some selected cases, the combinations were also tested at the weight ratio 1:1.

[3] = test system: Escherichia coli (E. coli—ATCC #10536); assay: Synergy test: high resolution MBC microtiter plate assay, phosphate buffer containing 35% dipropylene glycol, 15 seconds contact; conditions: E. coli 10536; for SI (Synergy Index): at Qa and Qb, less than one = synergy; for MBC of the component acting alone (QA / QB; Qa or Qb where the other component is 0): complete kill in 15 seconds
From the text: The concentrations and ratios may also vary under different test conditions or with different test methods.
One measure of synergy is the industrially accepted method described by Kull, F. C.; Eisman, P. C.; Sylwestrowicz, H. D, and Mayer, R. L., in Applied Microbiology 9:538-541 (1961), using the ratio determined by the formula: […]=Synergy Index (“SI”) wherein; QA=concentration of compound A (first component) in percent, acting alone, which produced an end point (MBC of Compound A). Qa=concentration of compound A in percent, in the mixture, which produced an end point. QB=concentration of compound B (second component) in percent, acting alone, which, produced an end point (MBC of Compound B). Qb=concentration of compound B in percent, in the mixture, which produced an end point.
When the sum of Qa/QA and Qb/QB is greater than one, antagonism is indicated. […] The lower the SI, the greater is the synergy shown by that particular mixture. The minimum biocidal concentration (MBC) of a microbicide is the lowest concentration tested under a specific set of conditions that provides complete kill of the tested microorganisms.
Synergy tests were conducted using standard microliter plate assays with phosphate buffer containing 35% dipropylene glycol (DPG). In this method, a wide range of combinations of chemicals was tested by conducting high resolution MBC assays of Component (A) in the presence of various concentrations of Component (B). High resolution MBCs were determined by adding varying amounts of microbicide to one column of a microliter plate and doing subsequent […] dilutions using an automated liquid handling, system to obtain a series of closely spaced endpoints. The MBC plate was inoculated one column at a time with the test microorganism. An aliquot of the inoculated well was transferred at 15 seconds to a plate containing a neutralizing agent (D/E Neutralizing Broth), mixed and held for 5 minutes before being transferred to a growth plate containing trypticase soy broth (TSB). The TSB plate was incubated at 37° C. and read for the presence/absence of growth at 24 hours. The lowest level tested that provided complete kill (as evidenced by no growth in the microtitre plate) of the test organisms in 15 seconds is the minimum biocidal concentration (MBC).
The synergy of the combinations of the present invention was determined against a bacterium, Escherichia coli (E. coli—ATCC #10536), at a concentration of approximately 1×10^8 it bacteria per mL. This microorganism is representative of natural contaminants in many consumer and industrial applications.

[4] = Table 28, E. coli, component alone

## CC1=CC[C@@H](CO)[C@H](C)C1 (relative stereo) [floralol, Trans-4,6-dimethyl-3-Cyclohexene-1-methanol]
[1]; component alone
  MBC (minimum biocidal concentration of antimicrobial components): 0.3 % w/v
[1]; [4]
  Antimicrobial alcohol MBC: 0.3 % (w/v)
[2]; 0.2% w/v
  Δ OD 450 nm = OD450 (time = 16 hours) − OD450 (time zero), Mean: −1.43
  Δ OD 590 nm OD590 (time = 16 hours) − OD590 (time zero), Mean: 0.35
[2]; 0.3% w/v
  Δ OD 450 nm = OD450 (time = 16 hours) − OD450 (time zero), Mean: −1.20
  Δ OD 590 nm OD590 (time = 16 hours) − OD590 (time zero), Mean: 0.55
[2]; 0.5% w/v
  No. of replicates showing growth (out of 4): 0
  Δ OD 450 nm = OD450 (time = 16 hours) − OD450 (time zero), Mean: −0.06
  Δ OD 590 nm OD590 (time = 16 hours) − OD590 (time zero), Mean: 0.09
[2]; […] w/v
  Δ OD 450 nm = OD450 (time = 16 hours) − OD450 (time zero), Mean: −0.29
  Δ OD 590 nm OD590 (time = 16 hours) − OD590 (time zero), Mean: 0.23
[2]
  MBC (minimum biocidal concentration): 0.4 % w/v

## Oc1ccc(Cc2ccccc2)cc1 [4-benzylphenol, 4-benzyl phenol]
[1]; 0.0125% 4-benzylphenol, E. coli
  NMBS: 7.75 log CFU/ml
[1]; 0.05% 4-benzylphenol, E. coli
  NMBS: 0.00 log CFU/ml
[1]; component alone
  MBC (minimum biocidal concentration of antimicrobial components): 0.05 % w/v
[1]; [4]
  Phenolic compound MBC: 0.5 % (w/v)
[1]; […] 4-benzylphenol, E. coli
  NMBS: 4.20 log CFU/ml

## Oc1ccc2c(c1)CCCC2 [5,6,7,8-tetrahydronaphthalen-2-ol]
[2]; 0.1% w/v
  No. of replicates showing growth (out of 4): 4
  Δ OD 450 nm = OD450 (time = 16 hours) − OD450 (time zero), Mean: −1.56
  Δ OD 590 nm OD590 (time = 16 hours) − OD590 (time zero), Mean: 0.32
[2]; 0.2% w/v
  No. of replicates showing growth (out of 4): 4
  Δ OD 450 nm = OD450 (time = 16 hours) − OD450 (time zero), Mean: −1.55
  Δ OD 590 nm OD590 (time = 16 hours) − OD590 (time zero), Mean: 0.36
[2]; […] w/v
  No. of replicates showing growth (out of 4): 4
  Δ OD 450 nm = OD450 (time = 16 hours) − OD450 (time zero), Mean: −1.60
  Δ OD 590 nm OD590 (time = 16 hours) − OD590 (time zero), Mean: 0.31
[3]
  SI (Synergy Index): 1.00
  MBC of the component acting alone (QA / QB; Qa or Qb where the other component is 0): 0.8 weight % and 0.6 weight %

## C=C(C)[C@@H]1CC=C(CO)CC1 [(4S)-(4-(prop-1-en-2-yl)cyclohex-1-enyl)methanol]
[2]
  MBC (minimum biocidal concentration): 0.4 % w/v
[3]
  SI (Synergy Index): 1.00
  MBC of the component acting alone (QA / QB; Qa or Qb where the other component is 0): 0.5 weight % and 0.3 weight % and 0.6 weight %

## CC1CCC(CO)C(C)C1 (centres unmarked) [dihydrofloralol, 2,4-Dimethylcyclohexylmethanol]
[1]; component alone
  MBC (minimum biocidal concentration of antimicrobial components): 0.5 % w/v
[1]; [4]
  Antimicrobial alcohol MBC: 0.5 % (w/v)
[2]; 0.2% w/v
  Δ OD 450 nm = OD450 (time = 16 hours) − OD450 (time zero), Mean: −1.39
  Δ OD 590 nm OD590 (time = 16 hours) − OD590 (time zero), Mean: 0.41
[2]; 0.3% w/v
  No. of replicates showing growth (out of 4): 4
  Δ OD 450 nm = OD450 (time = 16 hours) − OD450 (time zero), Mean: −1.15
  Δ OD 590 nm OD590 (time = 16 hours) − OD590 (time zero), Mean: 0.60
[2]; 0.5% w/v
  No. of replicates showing growth (out of 4): 0
  Δ OD 450 nm = OD450 (time = 16 hours) − OD450 (time zero), Mean: −0.06
  Δ OD 590 nm OD590 (time = 16 hours) − OD590 (time zero), Mean: 0.10
[2]; […] w/v
  Δ OD 450 nm = OD450 (time = 16 hours) − OD450 (time zero), Mean: −0.28
  Δ OD 590 nm OD590 (time = 16 hours) − OD590 (time zero), Mean: 0.28
[2]
  MBC (minimum biocidal concentration): 0.4 % w/v
